From patent publication US20080058213A1, “Benzoxazole Compounds” (priority 2004, published 2008) come the findings set out here.

SMILES strings stand for the structures.

Holding throughout (type): in vivo
In data set [1] the test system is flat sedge (Cyperus serotinus). As to the kind of experiment: Weed control test for paddy field (Test Example 1): flat sedge. As to conditions: paddy pots, treated at 1.0 leaf stage of barnyard grass, examined after 3 weeks. An excerpt:
(§1) Paddy field soil was filled in 1/10,000 are pots, kneaded with adequate amounts of water and chemical fertilizer, seeded with barnyard grass (Echinochloa crusgalli), Monochoria (Monochoria vaginalis), Japanese bulrush (Scirpus juncoides) and flat sedge (Cyperus serotinus), and further transplanted with 2.0 leaf stage of rice plant. The pots were maintained under the water-filled condition to a depth of 3 cm.
(§2) Wettable powders containing the compounds (1) as identified in Table 1, which were formulated following Production Example 2, were diluted with adequate amount of water and applied to the pots dropwise with pippet at a prescribed dose of the active ingredients per are, at 1.0 leaf stage of the barnyard grass.
(§3) After placing the pots in a glasshouse which was controlled at an average temperature of 25° C. for 3 weeks, herbicidal effect was examined.
(§4) Evaluation of the herbicidal effect is shown in the following six grades, by comparing the condition of untreated control and growth inhibition (%): • 0: 0%-less than 20% • 1: 20%-less than 40% • 2: 40%-less than 60% • 3: 60%-less than 80% • 4: 80%-less than 100% • 5: 100%.

The test system of data set [2] is Monochoria (Monochoria vaginalis). Put plainly: Weed control test for paddy field (Test Example 1): Monochoria. As to conditions: paddy pots, treated at 1.0 leaf stage of barnyard grass, examined after 3 weeks.
Text: as §1, §2, §3, §4

Another data set relates to rice plant. As to the kind of experiment: Weed control test for paddy field (Test Example 1): phytotoxicity to rice plant. As to conditions: paddy pots, treated at 1.0 leaf stage of barnyard grass, examined after 3 weeks.
Text: as §1, §2, §3
(§5) Evaluation of phytotoxicity is shown in the following six grades, as compared with the condition of untreated control: • 0: normal growth • 1: little damaged • 2: low damaged • 3: medium damaged • 4: serious damaged • 5: complete killed.

Data set [3] concerns Japanese bulrush (Scirpus juncoides). As to the kind of experiment: Weed control test for paddy field (Test Example 1): Japanese bulrush. As to conditions: paddy pots, treated at 1.0 leaf stage of barnyard grass, examined after 3 weeks.
Text: as §1, §2, §3, §4

The test system of data set [4] is barnyard grass (Echinochloa crusgalli). As to the kind of experiment: Weed control test for paddy field (Test Example 1): barnyard grass. As to conditions: paddy pots, treated at 1.0 leaf stage of barnyard grass, examined after 3 weeks.
Text: as §1, §2, §3, §4

In a further data set the test system is corn. As to the kind of experiment: Foliage treatment test for upland field (Test Example 3): phytotoxicity to corn. As to conditions: foliage treatment at 1.0-2.0 leaf stage of southern crabgrass, examined after 3 weeks. The method, then:
as §5
(§6) Compost mixed soil was filled in 1/3,000 are pots, seeded with southern crabgrass, common lambsquaters, slender amaranth, common purslane, velvetleaf, wheat, corn and soybean. The seeds were covered up with the soil and cultured in a glasshouse kept at 25° C. on the average.
(§7) After placing the test pots in a grasshouse kept at 25° C. on the average for 3 weeks, the herbicidal effect was examined.

A further data set relates to slender amaranth. Put plainly: Foliage treatment test for upland field (Test Example 3): slender amaranth. As to conditions: foliage treatment at 1.0-2.0 leaf stage of southern crabgrass, examined after 3 weeks.
Text: as §4, §6
(§8) Wettable powders containing the object compounds (1) as identified in Table 1, which were formulated following Preparation Example 2, were diluted with water to the prescribed dose of the active ingredient, and uniformly sprayed onto the weeds at 1.0-2.0 leaf stage of the southern crabgrass at an application water of 15 liters per are.
as §7
(§9) Evaluation of the herbicidal effect was conducted in the similar manner to Test Example 1.

In another data set the test system is velvetleaf. As to the kind of experiment: Foliage treatment test for upland field (Test Example 3): velvetleaf. As to conditions: foliage treatment at 1.0-2.0 leaf stage of southern crabgrass, examined after 3 weeks.
Text: as §4, §6, §8, §7, §9

For a further data set, the system named is wheat. Put plainly: Foliage treatment test for upland field (Test Example 3): phytotoxicity to wheat. As to conditions: foliage treatment at 1.0-2.0 leaf stage of southern crabgrass, examined after 3 weeks. Here is the method: as §5, §6, §7
The next data set has as its system common lambsquaters. As to the kind of experiment: Foliage treatment test for upland field (Test Example 3): common lambsquaters. As to conditions: foliage treatment at 1.0-2.0 leaf stage of southern crabgrass, examined after 3 weeks.
Text: as §4, §6, §8, §7, §9

Another data set has as its system soybean. Put plainly: Foliage treatment test for upland field (Test Example 3): phytotoxicity to soybean. As to conditions: foliage treatment at 1.0-2.0 leaf stage of southern crabgrass, examined after 3 weeks. The method, then: as §5, §6, §7
The next data set concerns southern crabgrass. Put plainly: Foliage treatment test for upland field (Test Example 3): southern crabgrass. As to conditions: foliage treatment at 1.0-2.0 leaf stage of southern crabgrass, examined after 3 weeks.
Text: as §4, §6, §8, §7, §9

Another data set deals with common purslane. Put plainly: Foliage treatment test for upland field (Test Example 3): common purslane. As to conditions: foliage treatment at 1.0-2.0 leaf stage of southern crabgrass, examined after 3 weeks.
Text: as §4, §6, §8, §7, §9

Take `CCOCC(=Cc1cccc(C(F)(F)F)c1)c1nc2cc(F)cc(F)c2o1` [Compound 112]: the “Herbicidal Effect Flat sedge” value in data set [1] (dose 2.5 g ai/a) was 3 (60%-less than 80%); in data set [1] (dose 5 g ai/a), 4 (80%-less than 100%). Further, the “Herbicidal Effect Monochoria vaginalis” value in [2] (dose 2.5 g ai/a) and in data set [2] (dose 5 g ai/a) was 5 (100%) throughout. Besides, the “Phytotoxicity Rice plant” value in the data set on rice plant (dose 2.5 g ai/a) is on record as 0; with rice plant (dose 5 g ai/a), 1. The “Herbicidal Effect Japanese bulrush” value in data set [3] (dose 2.5 g ai/a) was 4 (80%-less than 100%); in data set [3] (dose 5 g ai/a), 5 (100%). In addition, the results for the “Herbicidal Effect Barnyard grass” value in data set [4] (dose 2.5 g ai/a) and in data set [4] (dose 5 g ai/a) were 4 (80%-less than 100%) and 5 (100%), respectively.
As to `COCC(=Cc1cccc(C(F)(F)F)c1)c1nc2cc(C(C)(C)C)ccc2o1` [Compound 151], the “Herbicidal Effect Flat sedge” value is reported as 3 (60%-less than 80%) in data set [1] (dose 2.5 g ai/a) and 4 (80%-less than 100%) in [1] (dose 5 g ai/a). For the same compound, the Phytotoxicity corn in the data set on corn (dose 2.5 g ai/a) and with corn (dose 5 g ai/a) was 0 throughout. Also, the “Herbicidal Effect Monochoria vaginalis” value in [2] (dose 2.5 g ai/a) and in data set [2] (dose 5 g ai/a) was 5 (100%) throughout. For the same compound, the “Herbicidal Effect slender amaranth” value in the data set with slender amaranth (dose 2.5 g ai/a) and in the data set on slender amaranth (dose 5 g ai/a) was 5 (100%) throughout. Moreover, the “Herbicidal Effect velvetleaf” value with velvetleaf (dose 2.5 g ai/a) is on record as 3 (60%-less than 80%); in the data set with velvetleaf (dose 5 g ai/a) it was 4 (80%-less than 100%). Moreover, the Phytotoxicity wheat in the data set on wheat (dose 2.5 g ai/a) and with wheat (dose 5 g ai/a) was 0 each time. Also, the “Phytotoxicity Rice plant” value in the data set with rice plant (dose 2.5 g ai/a) and in the data set on rice plant (dose 5 g ai/a) was 0 throughout. Further, the “Herbicidal Effect Common lambsquatters” value in the data set on common lambsquaters (dose 2.5 g ai/a) and with common lambsquaters (dose 5 g ai/a) was 5 (100%) throughout. Besides, the Phytotoxicity soybean in the data set on soybean (dose 2.5 g ai/a) and in the data set with soybean (dose 5 g ai/a) was 0 in each case. Moreover, the “Herbicidal Effect Japanese bulrush” value in data set [3] (dose 2.5 g ai/a) is 3 (60%-less than 80%); in [3] (dose 5 g ai/a), 5 (100%). Also, the “Herbicidal Effect Barnyard grass” value is recorded as 4 (80%-less than 100%) in data set [4] (dose 2.5 g ai/a) and 5 (100%) in data set [4] (dose 5 g ai/a). For the same compound, the “Herbicidal Effect southern crabgrass” value in the data set on southern crabgrass (dose 2.5 g ai/a) is 4 (80%-less than 100%); in the data set with southern crabgrass (dose 5 g ai/a) it was 5 (100%). Further, the “Herbicidal Effect common purslane” value in the data set on common purslane (dose 2.5 g ai/a) and with common purslane (dose 5 g ai/a) was 5 (100%) in each case.
